Assay results from ChEMBL document CHEMBL1201862, “PubChem BioAssay data set” (2004).
Active and inactive are the calls of the source.

Assays:
Coagulation factor XII = target: T1, Coagulation factor XII (Homo sapiens, UniProt P00748); assay type: functional;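 note: activated factor XIIa alpha cleaving a fluorogenic AMC peptide substrate; inhibitor potency from loss of enzyme activity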
T1 sequence (P00748 whole entry): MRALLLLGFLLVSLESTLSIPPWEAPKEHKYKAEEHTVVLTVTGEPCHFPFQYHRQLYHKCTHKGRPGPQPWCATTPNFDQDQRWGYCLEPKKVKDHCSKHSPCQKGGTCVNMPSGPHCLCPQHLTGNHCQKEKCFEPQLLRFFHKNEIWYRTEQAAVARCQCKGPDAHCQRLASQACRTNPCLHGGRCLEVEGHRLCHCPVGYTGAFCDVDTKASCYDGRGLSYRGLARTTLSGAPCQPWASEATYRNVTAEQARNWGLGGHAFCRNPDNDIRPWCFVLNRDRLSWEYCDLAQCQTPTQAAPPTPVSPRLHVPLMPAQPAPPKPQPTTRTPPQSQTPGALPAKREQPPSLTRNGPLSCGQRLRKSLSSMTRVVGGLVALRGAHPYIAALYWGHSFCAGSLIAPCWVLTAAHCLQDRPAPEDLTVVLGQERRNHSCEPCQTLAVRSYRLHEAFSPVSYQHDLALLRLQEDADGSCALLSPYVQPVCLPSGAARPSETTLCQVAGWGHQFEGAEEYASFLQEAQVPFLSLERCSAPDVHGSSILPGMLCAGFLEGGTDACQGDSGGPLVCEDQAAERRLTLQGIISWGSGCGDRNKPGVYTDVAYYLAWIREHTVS

Bcl-2-related protein A1 = target: T2, Bcl-2-related protein A1 (Mus musculus, UniProt Q07440); assay type: functional;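 note: confirmatory dose–response counterscreen on Bfl-1, used to check hits from a UBC13 polyubiquitin inhibitor campaign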
T2 sequence (Q07440 whole entry): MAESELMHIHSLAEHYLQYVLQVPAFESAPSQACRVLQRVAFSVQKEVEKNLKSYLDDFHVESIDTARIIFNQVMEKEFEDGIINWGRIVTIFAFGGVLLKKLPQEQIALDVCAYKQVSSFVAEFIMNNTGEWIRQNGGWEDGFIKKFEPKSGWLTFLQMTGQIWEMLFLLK

[1] = target: T3, Ubiquitin-conjugating enzyme E2 N (Homo sapiens, UniProt P61088); assay type: functional
T3 sequence (P61088 whole entry): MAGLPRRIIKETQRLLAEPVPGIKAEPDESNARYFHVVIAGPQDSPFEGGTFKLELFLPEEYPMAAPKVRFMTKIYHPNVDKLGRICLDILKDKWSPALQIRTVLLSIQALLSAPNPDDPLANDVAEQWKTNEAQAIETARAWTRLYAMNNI

[2] = target: T3, Ubiquitin-conjugating enzyme E2 N; assay type: functional; remark: listed apart in the source
[3] = inhibitors of firefly luciferase expression or activity, dose response, H4 neuroglioma cells, luminescence (AID 1990); assay type: functional, cell-based
BJ [4] = assay: cytotoxicity toward BJ-TERT fibroblasts, dose response, cell-based, RAS-independent, luminescence (AID 1933); assay type: functional; conditions: Homo sapiens
[5] = Luminescence Cell-Based Dose Response HTS to Identify Inhibitors of 5'UTR Stem-Loop Driven Prion Protein mRNA Translation in H4 Neuroglioblastoma Cells. [Related pubchem assays: 1827 (Project Summary), 1813 (Primary HTS)]; assay type: functional
[6] = inhibitors of SNCA 5'UTR-driven reporter translation, confirmation, H4 neuroglioma cells, luminescence (AID 1988); assay type: functional, cell-based
BJ [7] = assay: cells; assay type: functional, cell-based; conditions: Homo sapiens
[8] = growth suppression of PTEN-null colon cells, dose response, cell-based, HCT116 PTEN knockout (AID 1047); assay type: functional;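 note: HCT116 colon tumor cells with PTEN knocked out; cells exposed to compound for 60 hours before readout; potency for loss of cell viability measured by luminescence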
[9] = growth suppression of beta-catenin-knockout colon cells, dose response, cell-based, HCT116, human colon tumor (AID 1045); assay type: functional;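 note: HCT116 colon tumor cells with beta catenin knocked out; cells exposed to compound for 60 hours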
BJ [10] = assay: cytotoxicity toward BJ-TERT-LT-ST fibroblasts, dose response, cell-based, RAS-independent, luminescence (AID 1935); assay type: functional; conditions: Homo sapiens;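 note: BJ fibroblasts immortalized with TERT plus LT and ST oncogenes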
[11] = cytotoxicity toward DRD oncogenic fibroblasts, dose response, cell-based, non-viral oncogenic, luminescence (AID 1934); assay type: functional; conditions: Homo sapiens
[12] = THP-1 cell cytotoxicity, dose response, cytotoxicity control for non-replicating M. tuberculosis project (AID 489025); assay type: functional
[13] = HepG2 cell cytotoxicity, dose response, cytotoxicity control for non-replicating M. tuberculosis project (AID 489018); assay type: functional; conditions: Mycobacterium tuberculosis
[14] = Vero E6 cell cytotoxicity, dose response, cytotoxicity control for non-replicating M. tuberculosis project, secondary assay (AID 492998); assay type: functional, VeroE6; conditions: Vero C1008
[15] = target: T4, Heat shock factor protein 1 (Mus musculus, UniProt P38532); assay: HSF1 potentiators in luciferase reporter cells, confirmation, cell-based, NIH3T3, luminescence, dose retest (AID 435004); assay type: functional;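 note: stress induced by proteasome inhibitor MG132 added 30 min after compound; luciferase reporter driven by HSF1 response element in NIH3T3 cells; actives raise luminescence as potentiators of the MG132 stress response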
T4 sequence (P38532 whole entry): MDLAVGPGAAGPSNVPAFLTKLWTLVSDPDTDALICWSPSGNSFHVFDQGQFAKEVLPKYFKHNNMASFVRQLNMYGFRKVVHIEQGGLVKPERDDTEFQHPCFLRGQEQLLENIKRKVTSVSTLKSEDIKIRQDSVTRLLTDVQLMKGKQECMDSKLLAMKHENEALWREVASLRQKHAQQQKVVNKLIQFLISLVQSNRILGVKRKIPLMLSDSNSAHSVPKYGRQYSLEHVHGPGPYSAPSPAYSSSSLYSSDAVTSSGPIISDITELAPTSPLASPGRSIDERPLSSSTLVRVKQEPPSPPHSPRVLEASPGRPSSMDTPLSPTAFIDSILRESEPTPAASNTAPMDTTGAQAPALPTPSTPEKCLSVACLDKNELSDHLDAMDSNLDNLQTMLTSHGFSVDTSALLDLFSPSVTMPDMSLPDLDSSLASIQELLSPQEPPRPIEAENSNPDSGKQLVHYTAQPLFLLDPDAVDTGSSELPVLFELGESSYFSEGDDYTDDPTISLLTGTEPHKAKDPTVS

cells = assay type: functional
[16] = target: Heat shock protein HSP 90-alpha (Homo sapiens, UniProt P07900); assay type: functional, organism-based
BJ [17] = assay: cytotoxicity toward Ras-transformed BJeLR fibroblasts, dose response, cell-based, alamar blue fluorescence, cherrypicked samples (AID 2631); assay type: functional; conditions: Homo sapiens;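 note: confirmatory dose-response assay in RAS-dependent BJ fibroblasts engineered with TERT, LT and ST, with cytotoxicity read by fluorescence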
INS1 = assay: beta cell apoptosis inhibitors, cytokine rescue, dose response, luminescence, retest (AID 449756); assay type: functional, cell-based; conditions: Rattus norvegicus;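 note: cell death triggered by IL-1 beta plus TNF-alpha plus IFN-gamma mixture; protective hits raise ATP signal compared with cytokine alone wells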
[18] = Shn3 3'UTR reporter inhibitors, dose response, cell-based, Clone20 osteoblasts, firefly luciferase, cherry-picked (AID 624132); assay type: functional;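 note: firefly luciferase luminescence from reporter carrying the Shn3 3'UTR in osteoblasts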
[19] = HepG2 cell cytotoxicity, dose response, cytotoxicity control for Shn3 inhibitor project, CellTiter-Glo, cherry-picked (AID 624134); assay type: functional, cell-based
[20] = control 3'UTR Renilla luciferase suppression, dose response, counter-screen for Shn3 inhibitor project, cell-based, Clone20-Shn3RL, cherry-picked (AID 624133); assay type: functional
Cytochrome P450 2D6 = Cytochrome P450 2D6 (Homo sapiens, UniProt P10635);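 note: CYP2D6 member of a cytochrome P450 panel assay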
Sequence of Cytochrome P450 2D6 (P10635 whole entry): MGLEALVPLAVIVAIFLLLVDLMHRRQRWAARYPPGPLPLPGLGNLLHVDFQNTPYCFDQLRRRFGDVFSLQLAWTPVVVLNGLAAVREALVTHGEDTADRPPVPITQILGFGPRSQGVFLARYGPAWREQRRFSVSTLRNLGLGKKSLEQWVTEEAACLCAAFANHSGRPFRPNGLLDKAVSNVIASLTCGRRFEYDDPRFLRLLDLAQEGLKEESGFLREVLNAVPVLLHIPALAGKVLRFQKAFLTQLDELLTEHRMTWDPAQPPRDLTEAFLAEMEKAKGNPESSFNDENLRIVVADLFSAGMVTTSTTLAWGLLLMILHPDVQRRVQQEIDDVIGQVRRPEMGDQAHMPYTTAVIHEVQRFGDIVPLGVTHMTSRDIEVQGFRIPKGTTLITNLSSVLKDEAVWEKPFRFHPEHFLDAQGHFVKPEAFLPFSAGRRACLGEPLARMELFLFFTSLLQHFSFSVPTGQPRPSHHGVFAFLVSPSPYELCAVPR

Cytochrome P450 3A4 = Cytochrome P450 3A4 (Homo sapiens, UniProt P08684);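 note: CYP3A4 tested as one member of a cytochrome P450 panel screen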
Large T antigen = Large T antigen (Simian virus 40, UniProt P03070); assay type: functional, Betapolyomavirus macacae;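 note: Confirmatory-stage PubChem screen for compounds that inhibit SV40 T antigen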
Sequence of Large T antigen (P03070 whole entry): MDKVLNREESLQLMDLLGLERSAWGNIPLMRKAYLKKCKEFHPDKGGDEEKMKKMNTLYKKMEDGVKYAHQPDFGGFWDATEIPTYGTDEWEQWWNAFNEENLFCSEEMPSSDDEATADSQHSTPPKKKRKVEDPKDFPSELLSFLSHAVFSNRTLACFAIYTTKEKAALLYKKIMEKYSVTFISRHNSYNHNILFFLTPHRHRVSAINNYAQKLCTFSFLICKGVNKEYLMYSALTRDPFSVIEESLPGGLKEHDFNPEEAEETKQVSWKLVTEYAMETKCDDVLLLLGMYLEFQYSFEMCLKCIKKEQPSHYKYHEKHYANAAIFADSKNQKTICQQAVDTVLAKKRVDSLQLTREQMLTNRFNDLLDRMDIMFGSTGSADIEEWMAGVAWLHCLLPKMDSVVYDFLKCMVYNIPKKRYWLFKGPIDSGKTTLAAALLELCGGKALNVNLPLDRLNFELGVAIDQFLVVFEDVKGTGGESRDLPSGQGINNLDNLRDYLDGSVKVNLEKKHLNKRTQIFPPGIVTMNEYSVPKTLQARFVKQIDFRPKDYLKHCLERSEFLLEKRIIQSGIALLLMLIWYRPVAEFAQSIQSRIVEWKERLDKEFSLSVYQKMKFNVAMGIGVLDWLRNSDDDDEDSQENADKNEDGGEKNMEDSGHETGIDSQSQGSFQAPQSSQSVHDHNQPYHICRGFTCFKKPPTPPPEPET

[21] = target: Peroxisome proliferator-activated receptor gamma/Nuclear receptor coactivator 1 (Homo sapiens, UniProt P37231); assay: (§1) TR-FRET dose response biochemical High Throughput Screening assay for agonists of the steroid receptor coactivator 1 (SRC-1) recruitment by the peroxisome proliferator-activated receptor gamma (PPAR gamma): non-selective agonists. [Related pubchem assays (depositor defined):AID1300, AID1808, AID504735, AID631]; assay type: protein assay
[22] = target: Peroxisome proliferator-activated receptor gamma/Nuclear receptor coactivator 3 (Homo sapiens, UniProt P37231); assay: as §1, with “3 (SRC-3)” for “1 (SRC-1)”, “assays: 1301 (Confirmation screen.), 1048 (Primary screen.)]” for “assays (depositor defined):AID1300, AID1808, AID504735, AID631]”; assay type: functional
Sequence of Peroxisome proliferator-activated receptor gamma/Nuclear receptor coactivator 3 (P37231 whole entry): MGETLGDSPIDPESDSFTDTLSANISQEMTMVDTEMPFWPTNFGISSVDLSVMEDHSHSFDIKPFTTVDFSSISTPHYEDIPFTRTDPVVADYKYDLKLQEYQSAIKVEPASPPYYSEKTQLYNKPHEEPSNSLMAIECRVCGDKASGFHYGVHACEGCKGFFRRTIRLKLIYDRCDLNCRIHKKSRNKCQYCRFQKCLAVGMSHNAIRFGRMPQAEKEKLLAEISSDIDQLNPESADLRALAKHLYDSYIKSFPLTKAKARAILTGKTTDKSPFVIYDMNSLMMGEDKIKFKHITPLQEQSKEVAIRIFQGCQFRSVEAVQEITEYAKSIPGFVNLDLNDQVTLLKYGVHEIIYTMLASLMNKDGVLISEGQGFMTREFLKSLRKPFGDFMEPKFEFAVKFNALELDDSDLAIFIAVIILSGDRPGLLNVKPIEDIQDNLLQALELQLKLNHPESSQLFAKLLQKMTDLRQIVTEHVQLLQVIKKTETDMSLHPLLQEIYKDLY
Sequence of Peroxisome proliferator-activated receptor gamma/Nuclear receptor coactivator 3 (Q9Y6Q9 whole entry, further chain): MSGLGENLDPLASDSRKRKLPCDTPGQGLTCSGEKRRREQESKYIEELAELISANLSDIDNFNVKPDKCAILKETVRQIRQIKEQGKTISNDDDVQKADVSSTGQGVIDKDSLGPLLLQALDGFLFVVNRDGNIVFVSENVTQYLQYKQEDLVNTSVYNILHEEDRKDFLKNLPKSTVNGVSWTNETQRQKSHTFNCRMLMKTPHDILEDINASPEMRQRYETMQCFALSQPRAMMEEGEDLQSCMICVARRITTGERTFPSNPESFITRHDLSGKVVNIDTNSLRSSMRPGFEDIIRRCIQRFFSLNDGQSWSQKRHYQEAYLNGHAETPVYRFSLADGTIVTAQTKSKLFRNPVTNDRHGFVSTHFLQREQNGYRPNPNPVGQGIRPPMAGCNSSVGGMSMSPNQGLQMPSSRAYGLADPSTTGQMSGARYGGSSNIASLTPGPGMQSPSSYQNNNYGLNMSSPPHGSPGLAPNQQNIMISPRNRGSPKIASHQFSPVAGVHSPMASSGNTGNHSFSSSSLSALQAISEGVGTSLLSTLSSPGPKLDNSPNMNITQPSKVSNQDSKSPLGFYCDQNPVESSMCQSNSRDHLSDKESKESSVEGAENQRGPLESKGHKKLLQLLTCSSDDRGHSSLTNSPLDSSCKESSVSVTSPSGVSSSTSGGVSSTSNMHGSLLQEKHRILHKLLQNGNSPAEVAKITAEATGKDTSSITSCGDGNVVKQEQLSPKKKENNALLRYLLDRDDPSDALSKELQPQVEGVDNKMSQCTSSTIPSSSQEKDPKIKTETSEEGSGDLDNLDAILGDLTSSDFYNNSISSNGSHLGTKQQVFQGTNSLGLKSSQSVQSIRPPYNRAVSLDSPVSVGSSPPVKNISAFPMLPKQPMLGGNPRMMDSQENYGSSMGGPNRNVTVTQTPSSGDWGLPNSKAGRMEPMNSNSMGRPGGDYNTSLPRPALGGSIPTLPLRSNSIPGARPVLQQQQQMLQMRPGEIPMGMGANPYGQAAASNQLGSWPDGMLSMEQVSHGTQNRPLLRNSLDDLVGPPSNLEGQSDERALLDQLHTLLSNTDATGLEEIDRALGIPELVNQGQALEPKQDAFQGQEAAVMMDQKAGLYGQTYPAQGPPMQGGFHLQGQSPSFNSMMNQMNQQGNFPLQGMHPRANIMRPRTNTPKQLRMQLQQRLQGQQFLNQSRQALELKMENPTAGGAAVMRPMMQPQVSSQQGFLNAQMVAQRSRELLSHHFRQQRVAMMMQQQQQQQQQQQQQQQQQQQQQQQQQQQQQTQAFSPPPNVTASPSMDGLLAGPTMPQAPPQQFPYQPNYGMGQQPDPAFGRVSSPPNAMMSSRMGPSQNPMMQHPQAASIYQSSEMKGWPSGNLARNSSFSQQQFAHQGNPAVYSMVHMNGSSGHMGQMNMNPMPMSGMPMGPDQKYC

[23] = target: Peroxisome proliferator-activated receptor gamma/Nuclear receptor coactivator 2 (Homo sapiens, UniProt P37231); assay: TR-FRET dose response biochemical High Throughput Screening assay for agonists of the steroid receptor coactivator 2 (SRC-2) recruitment by the peroxisome proliferator-activated receptor gamma (PPAR gamma): non-selective agonists. [Related pubchem assays: 1297, 1032 ]; assay type: functional
Sequence of Peroxisome proliferator-activated receptor gamma/Nuclear receptor coactivator 2 (P37231 whole entry): as the sequence (P37231 whole entry) above
Sequence of Peroxisome proliferator-activated receptor gamma/Nuclear receptor coactivator 2 (Q15596 whole entry, further chain): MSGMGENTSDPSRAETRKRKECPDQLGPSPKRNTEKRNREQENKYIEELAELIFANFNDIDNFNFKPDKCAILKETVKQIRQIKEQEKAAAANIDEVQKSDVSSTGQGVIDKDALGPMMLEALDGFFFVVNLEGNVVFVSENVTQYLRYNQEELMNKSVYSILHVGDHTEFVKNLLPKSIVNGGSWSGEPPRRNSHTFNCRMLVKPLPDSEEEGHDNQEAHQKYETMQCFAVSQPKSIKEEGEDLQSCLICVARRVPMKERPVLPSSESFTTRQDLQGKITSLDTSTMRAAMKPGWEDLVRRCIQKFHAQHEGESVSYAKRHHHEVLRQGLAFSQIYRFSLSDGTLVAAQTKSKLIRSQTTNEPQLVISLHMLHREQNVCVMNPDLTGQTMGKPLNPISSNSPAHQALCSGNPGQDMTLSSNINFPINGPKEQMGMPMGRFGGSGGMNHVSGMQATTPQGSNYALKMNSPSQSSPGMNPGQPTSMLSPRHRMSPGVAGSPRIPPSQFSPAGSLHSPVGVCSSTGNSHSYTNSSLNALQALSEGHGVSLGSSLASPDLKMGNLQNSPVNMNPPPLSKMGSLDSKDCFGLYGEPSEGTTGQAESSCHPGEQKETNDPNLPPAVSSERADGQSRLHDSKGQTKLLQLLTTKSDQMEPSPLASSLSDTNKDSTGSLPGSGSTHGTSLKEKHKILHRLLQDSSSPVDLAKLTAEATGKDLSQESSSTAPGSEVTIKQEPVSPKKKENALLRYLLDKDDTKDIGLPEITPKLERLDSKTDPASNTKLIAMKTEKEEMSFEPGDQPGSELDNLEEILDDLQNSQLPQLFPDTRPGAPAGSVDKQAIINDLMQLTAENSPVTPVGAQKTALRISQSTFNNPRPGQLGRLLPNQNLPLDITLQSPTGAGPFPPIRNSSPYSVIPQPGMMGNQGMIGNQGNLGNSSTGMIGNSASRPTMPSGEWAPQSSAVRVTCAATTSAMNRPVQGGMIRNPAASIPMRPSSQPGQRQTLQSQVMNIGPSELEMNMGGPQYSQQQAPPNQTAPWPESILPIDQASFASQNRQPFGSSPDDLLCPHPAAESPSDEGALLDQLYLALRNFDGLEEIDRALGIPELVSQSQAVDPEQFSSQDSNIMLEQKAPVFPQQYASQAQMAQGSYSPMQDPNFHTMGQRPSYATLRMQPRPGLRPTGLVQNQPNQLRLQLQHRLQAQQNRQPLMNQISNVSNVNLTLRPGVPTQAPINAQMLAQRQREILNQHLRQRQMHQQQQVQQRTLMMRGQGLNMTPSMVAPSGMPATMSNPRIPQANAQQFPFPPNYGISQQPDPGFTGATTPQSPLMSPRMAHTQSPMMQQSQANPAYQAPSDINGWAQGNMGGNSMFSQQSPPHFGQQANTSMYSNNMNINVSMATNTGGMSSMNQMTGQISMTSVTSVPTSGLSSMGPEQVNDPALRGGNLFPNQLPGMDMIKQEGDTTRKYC

## COc1ccccc1CC(=O)NCc1csc(-c2cccs2)n1
Coagulation factor XII
  IC50: > 50 µM (inactive)

## Cc1sc2nc(C(C)Nc3ccccc3N3CCOCC3)[nH]c(=O)c2c1C (configuration not stated)
Bcl-2-related protein A1
  IC50: > 20 µM (inactive)
[1]
  IC50: 16.5 µM (active)
[2]
  IC50: 9.08 µM (active)

## Cn1c(/C=C/c2ccc([N+](=O)[O-])o2)nc2ccccc2c1=O
[3]
  EC50: > 120 µM (not active)
BJ [4]
  EC50: 4.06 µM (active)
[5]
  EC50: > 120 µM (not active)
[6]
  EC50: > 120 µM (not active)
BJ [7]
  EC50: 3.51 µM (inconclusive)
[8]
  EC50: < 0.059 µM (active)
[9]
  EC50: < 0.059 µM (active)
BJ [10]
  EC50: 2.75 µM (inconclusive)
[11]
  EC50: 3.02 µM (active)
[12]
  CC50: 1.44 µM (active)
[13]
  CC50: 2.67 µM (active)
[14]
  CC50: 6.22 µM (active)
[15]
  EC50: > 260 µM (inconclusive)
cells
  IC50: 0.78 µM (active)
[16]
  AC50: 5 µM (active)
BJ [17]
  EC50: 1.35 µM (active)
INS1
  AC50: 2.55 µM (active)
[18]
  AC50: 2.37 µM (active)
[19]
  AC50: 10.6 µM (active)
[20]
  AC50: 7 µM (active)
Cytochrome P450 2D6
  AC50: 17.8 µM (inconclusive)
Cytochrome P450 3A4
  AC50: 25.1 µM (inconclusive)

## CCOC(=O)C[n+]1c(C)sc2ccc(OC)cc21
Large T antigen
  IC50: 22.1 µM (active)
Coagulation factor XII
  IC50: > 50 µM (inactive)
Cytochrome P450 2D6
  AC50: 12.6 µM (inconclusive)

## CCOc1ccc(S(=O)(=O)N(C)c2ccc(OCC(=O)Nc3nc(-c4cc(OC)ccc4OC)cs3)cc2)cc1
[21]
  EC50: 36.5 µM (inactive)
[22]
  EC50: > 79.4 µM (not active)
[23]
  EC50: 34.8 µM (not active)
